Source: patent US8426592B2, “Histone deacetylases, and uses related thereto” (President and Fellows of Harvard College, priority 1996, dated 2013)
Read-outs that look alike come from different tables or passages of the source. Non-standard residues stand in square brackets, D forms with d. Residues, ends and D or L forms follow the SMILES beside them. Aoe = N[C@@H](CCCCCC(=O)[C@@H]1CO1)C(=O)O

Legend:
mammalian cells = conditions: cited from earlier work; for gene expression and differentiation: certain mammalian cell lines; for cell cycle arrest: mammalian cells
histone deacetylase [1] = assay: Histone deacetylase assay, release of [3H]acetic acid from [3H]acetylated histone H4 (1-24) peptide; type: biochemical; conditions: 20 nM; crude or partially purified (Mono Q) bovine thymus nuclear enzyme; pretreatment 30 min at 4° C.
Method: Nuclear proteins from bovine thymus were precipitated with ammonium sulfate and fractionated on a Mono Q column. […] For the histone deacetylase assay, a peptide corresponding to bovine histone H4 (1-24) was synthesized. The peptide was chemically acetylated with sodium [^3H]acetate (5.3 Ci/mmol, New England Nuclear)/BOP reagent (Aldrich) and purified by reverse phase HPLC. Two microliters of [^3H]peptide (˜40,000 dpm) were used per […] assay. After incubation at 37° C. for one hour, the reaction was quenched with 1 M HCl/0.16 M acetic acid (50 μl). Released [^3H]acetic acid was extracted with 600 μl of ethyl acetate and quantified by scintillation counting. […] A280=absorbance at 280 n.
Briefly, thymocytes (˜12 g) prepared from fresh bovine thymus were homgenized in hypotonic lysis buffer [20 mM tris (pH 7.8), 20 mM NaCl, 1 mM EDTA, 10% glycerol, 1 mM PMSF, 1 mM benzamidine, 10 μg/ml each of pepstatin, aprotinin, and leupeptin] by mechanical disruption and the nuclei were isolated by centrifugation at 3000 g. Nuclei were resuspended in lysis buffer and the proteins were extracted with 0.4 M ammonium sulfate. The viscous lysate was sonicated and clarified by centrifugation at 100,000 g for one hour. Proteins were then precipitated with 90% saturated ammonium sulfate and recovered by centrifugation (100,000 g, one hour). […]

trapoxin binding protein = assay: Trapoxin binding, charcoal precipitation assay with [3H]trapoxin; conditions: simultaneous addition, bovine thymus extracts
bovine p46-p50 = assay: Binding of bovine thymus nuclear proteins to K-trap affinity matrix in presence of inhibitors, silver stained gel; conditions: incubation in presence of inhibitor
Method: Nuclear proteins from human Jurkat T cells were prepared identically to those from bovine thymus (FIG. 1B). Molecular size standards (in kilodaltons) are indicated to the right.
K-trap was deprotected with Pd(Ph3P)4 and coupled to an activated agarose matrix (FIG. 2A). […] Bound polypeptides were eluted by boiling the matrix in 1% SDS buffer and separated b polyacrylamide gel electrophoresis.

histone deacetylase [2] = conditions: cited from earlier work; for histone deacetylation: cultured mammalian cells, fractioned cell extracts
HD1 = target: T1, HD1 (Homo sapiens, UniProt Q13547); assay: Histone deacetylase activity of anti-HD1(467-482) immunoprecipitates from Jurkat nuclear extract; type: biochemical; conditions: endogenous HD1 from Jurkat crude nuclear extracts
T1 construct: endogenous in cells; host or cells: Jurkat T cells (nuclear extract)
Method: After resuspending the immunoprecipitates in HDx buffer [20 mM tris (pH 8), 150 mM NaCl, 10% glycerol], inhibitors were added as indicated, and histone deacetylase activity was measured as described in FIG. 1A.
We used affinity purified antibodies directed against a COOH-terminal peptide (amino acids 467 to 482) to immunoprecipitate HD1 from crude nuclear extracts.

HD1 and RbAp48 = target: T2, HD1 and RbAp48 (Homo sapiens, UniProt Q13547); assay: Immunoblot of proteins eluted from K-trap affinity matrix; type: binding, bovine and human; conditions: affinity purification in presence of inhibitor
T2 construct: endogenous in cells; host or cells: Jurkat nuclear extract (the same blot also carries bovine thymus nuclear proteins)
From the text: Proteins eluted from the K-trap affinity matrix (FIG. 2) were separated by SDS-PAGE and transferred to Immobilon-P (Millipore). Blots were probed with polyclonal anti-HD1 (319-336) or monoclonal anti-RbAp48 and bound antibodies were detected with enhanced chemiluminescence (Amersham).
To determine the relationship between the proteins from bovine thymus (p46-p50) and the proteins isolated from human Jurkat T cells (p50 and p55), an antiserum was generated against a peptide specified by the HD1 open reading frame (FIG. 3A, amino acids […]).

[3] = target: T3, recombinant FLAG epitope tagged HD1 (HD1-F) (Homo sapiens, UniProt Q13547); assay: Histone deacetylase activity of anti-FLAG immunoprecipitates of recombinant HD1-F; type: biochemical; conditions: Jurkat cells transfected with pBJ5/HD1-F
T3 construct: expressed in transfected cells; host or cells: Tag Jurkat cells, electroporated with pBJ5/HD1-F
Method: Anti-FLAG antibodies conjugated to agarose beads (IBI) were used to immunoprecipitate recombinant HD1 in the presence or absence of FLAG peptide competitor, and histone deacetylase activity was measured as described above.

recombinant HD1-F = target: T4, recombinant HD1-F (Homo sapiens, UniProt Q13547); assay: Interaction between recombinant HD1-F and K-trap affinity matrix, immunoblot; type: binding; conditions: lysates of transfected Jurkat cells
T4 construct: expressed in transfected cells; host or cells: Tag Jurkat cells, electroporated with pBJ5/HD1-F
Method: Lysates from Jurkat cells transfected with pBJ5/HD1-F were incubated with the K-trap affinity matrix in the presence or absence of inhibitors. Immunoblots of the eluted proteins were probed with the anti-FLAG M2 monoclonal antibody (IBI).

T2 sequence (Q13547 whole entry): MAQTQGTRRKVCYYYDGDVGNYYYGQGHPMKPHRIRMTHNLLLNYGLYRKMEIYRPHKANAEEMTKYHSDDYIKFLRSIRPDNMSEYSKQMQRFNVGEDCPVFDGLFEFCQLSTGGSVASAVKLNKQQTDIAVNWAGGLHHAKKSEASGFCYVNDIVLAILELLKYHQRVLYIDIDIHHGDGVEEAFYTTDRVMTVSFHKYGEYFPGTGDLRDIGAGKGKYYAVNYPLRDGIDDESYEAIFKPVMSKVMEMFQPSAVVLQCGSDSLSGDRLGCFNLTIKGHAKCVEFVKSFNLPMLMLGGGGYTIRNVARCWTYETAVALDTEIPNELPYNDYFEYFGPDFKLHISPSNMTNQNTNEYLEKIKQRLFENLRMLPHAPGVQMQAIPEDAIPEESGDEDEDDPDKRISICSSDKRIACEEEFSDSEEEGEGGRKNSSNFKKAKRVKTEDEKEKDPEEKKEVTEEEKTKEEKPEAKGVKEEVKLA
T2 sequence (Q09028 2-425 partner): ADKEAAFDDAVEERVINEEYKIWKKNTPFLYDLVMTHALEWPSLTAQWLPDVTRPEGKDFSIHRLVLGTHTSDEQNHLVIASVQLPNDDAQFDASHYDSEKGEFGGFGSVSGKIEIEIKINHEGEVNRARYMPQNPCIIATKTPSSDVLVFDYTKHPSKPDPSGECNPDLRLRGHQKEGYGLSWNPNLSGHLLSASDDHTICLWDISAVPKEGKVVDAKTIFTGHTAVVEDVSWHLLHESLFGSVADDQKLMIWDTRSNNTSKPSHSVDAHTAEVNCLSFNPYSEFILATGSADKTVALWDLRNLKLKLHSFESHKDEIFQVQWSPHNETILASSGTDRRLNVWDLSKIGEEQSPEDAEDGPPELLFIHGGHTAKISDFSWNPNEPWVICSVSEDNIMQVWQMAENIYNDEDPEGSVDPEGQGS
T3 sequence (Q13547 whole entry): as the sequence (Q13547 whole entry) above
T4 sequence (Q13547 whole entry): as above
T1 sequence (Q13547 whole entry): as above
T1 sequence (Q09028 2-425 partner limits assumed): as the sequence (Q09028 2-425 partner) above

SMILES	gene expression and differentiation (mammalian cells)	cell cycle arrest (mammalian cells)	cell cycle arrest (mammalian cells; listed as Trapoxin)	histone deacetylase activity after treatment (histone deacetylase [1])	competition with [3H]trapoxin binding (trapoxin binding protein)	retention of bovine p46-p50 on K-trap matrix in the presence of inhibitor (bovine p46-p50)	mode of inhibition of histone deacetylase activity (histone deacetylase [2])	histone deacetylation (histone deacetylase [2])	histone deacetylation (histone deacetylase [2]; listed as Trapoxin)	potency relative to sodium butyrate (mammalian cells)	histone deacetylase activity of HD1 immunoprecipitates (HD1)	detection of HD1 and RbAp48 in K-trap matrix eluates (HD1 and RbAp48)	histone deacetylase activity of HD1-F immunoprecipitates [3]	competition of HD1-F interaction with K-trap affinity matrix (recombinant HD1-F)
O=C1N[C@@H](Cc2ccccc2)C(=O)N2CCC[C@@H]2C(=O)N[C@@H](CCCCCC(=O)[C@@H]2CO2)C(=O)N[C@H]1Cc1ccccc1 [trapoxin] (cyclo(FF[dP][Aoe]))	alter gene expression and induce certain mammalian cell lines to differentiate	G1 and G2 phase cell cycle arrest	causes mammalian cells to arrest in the cell cycle	abolished deacetylase activity	completed	not retained	“irreversible” inhibitor	inhibit histone deacetylation	inhibits histone deacetylation in vivo					
CC(/C=C/C(=O)NO)=C\[C@@H](C)C(=O)c1ccc(N(C)C)cc1 [trichostatin]	alter gene expression and induce certain mammalian cell lines to differentiate	G1 and G2 phase cell cycle arrest		abolished deacetylase activity	competed	not retained		inhibit histone deacetylation		five orders of magnitude more potent	inhibited	neither HD1 nor RbAp48 was detected	sensitive	fully competed by nanomolar concentrations
